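Method: 48-hour compound exposure of cells in 96-well plates, five concentrations, linear interpolation of endpoints. GI50 marks 50% less growth.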 Calls of active or inactive are those of the source. Cut-off read from the data, not from the text of the source: active = GI50 up to about 1.1 µM and inactive = higher.
Assays:
Assay in all cases: growth of human tumour cells (NCI), 48 h
[1] = test system: DLD-1
[2] = test system: M19-MEL
[3] = test system: DMS-273
[4] = test system: SNB-78
[5] = test system: HOP-18
[6] = test system: KM-20L2
[7] = test system: DMS-114
[8] = test system: BT-549

With `Cc1c2ccccc2c(C)c2c3c(ccc12)C(=O)C=CC3=O` the GI50 [1] was 18.5 µM (inactive), the GI50 [2] was 17.1 µM (inactive) and the GI50 [3] was 64.7 µM (inactive). The GI50 [4] was 16.3 µM (inactive), the GI50 [5] was 23.8 µM (inactive) and the GI50 [6] was 41.9 µM (inactive). For the same compound, the GI50 [7] was 11.8 µM (inactive).
For `CC1(C)CC(=O)c2[nH]c3ccccc3c2CC(=O)NCCc2cn1cn2`, the GI50 [8] was > 100 µM (inactive).
With `N#CCCN(CCC#N)c1ccc(C(=N/c2ccc(Cl)cc2)/N=N/c2ccccc2)cc1` the GI50 [8] was 17.5 µM (inactive).
`CC1(C)C[C@H](O)[C@H](O)[C@]23C(=O)O[C@H](O)[C@H]2C(C=O)=CC[C@@H]13` was tested, and the GI50 [8] was > 100 µM (inactive).
For `CC(=O)NC1C(OCc2ccccc2)OC(CO)C(O)C1OC(C)C(=O)NC(C(=O)N[C@@H](CCC(=O)NCCNCCNc1c2ccccc2nc2cccc([N+](=O)[O-])c12)C(N)=O)C(C)C` (some centres undefined), the GI50 [8] was > 100 µM (inactive).
For `COC(=O)C1=C(C(=O)OC)C2(/N=C(\Nc3ccccc3)c3ccccc3)N(c3ccc(OC)cc3)CC(c3ccccc3)N2O1` (centres undefined), the GI50 [8] was > 100 µM (inactive).
For `COc1ccc(C)cc1N1C(=O)C2ON(Cc3ccc(CC(N)=O)cc3)C(c3c4ccccc4c(Cl)c4ccccc34)C2C1=O` (centres undefined), the GI50 [8] was 24.1 µM (inactive).
In the case of `C/C=C/[C@H]1O[C@@](OC)([C@@H](C)[C@H](O)[C@H](C)[C@H]2OC(=O)/C(OC)=C/C(C)=C/[C@@H](C)[C@@H](O)[C@@H](C)[C@@H](O)[C@H](C)C/C(C)=C/C=C/[C@@H]2OC)CC(OC2CC(O)C(OC(N)=O)C(C)O2)[C@@H]1C` (some centres undefined), the GI50 [8] is reported as < 0.01 µM (active).
In the case of `C=CC/N=C1/N=C(CC(=O)OCC)CS1`, the GI50 [1] is reported as > 100 µM (inactive), the GI50 [2] is reported as > 100 µM (inactive) and the GI50 [3] is reported as > 100 µM (inactive). The GI50 [4] was > 100 µM (inactive), the GI50 [5] was > 100 µM (inactive) and the GI50 [6] was > 100 µM (inactive). The GI50 [7] was > 100 µM (inactive).
For `O=c1c2ccccc2n2n1CC(O)C2` (centres undefined), the GI50 [1] was > 100 µM (inactive), the GI50 [2] was > 100 µM (inactive) and the GI50 [3] was > 100 µM (inactive). The GI50 [4] was 9.35 µM (inactive), the GI50 [5] was > 100 µM (inactive) and the GI50 [6] was > 100 µM (inactive).
`COC(=O)c1ccc(/C=N/c2cc(C)nn2-c2ccccc2)cc1` was tested, and the GI50 [8] was 34.9 µM (inactive).
`Cc1cccc(/C=N/NC(=S)NC2CCCCC2)n1` was tested, and the GI50 [8] was 31 µM (inactive).
In the case of `CC(=O)N(C)c1ccc2ncccc2c1[N+](=O)[O-]`, the GI50 [1] is reported as > 100 µM (inactive), the GI50 [2] is reported as > 100 µM (inactive) and the GI50 [3] is reported as > 100 µM (inactive). For the same compound, the GI50 [4] was > 100 µM (inactive), the GI50 [5] was > 100 µM (inactive) and the GI50 [6] was > 100 µM (inactive). For the same compound, the GI50 [7] was > 100 µM (inactive).
In the case of `COc1ccc(C#CCC(OC2OC(CO)C(O)C(O)C2O)C(O)c2ccc(OC)c(OC)c2)cc1OC` (centres undefined), the GI50 [1] is reported as > 100 µM (inactive), the GI50 [3] is reported as > 100 µM (inactive) and the GI50 [4] is reported as > 100 µM (inactive). The GI50 [5] was > 100 µM (inactive) and the GI50 [6] was > 100 µM (inactive).
In the case of `Nc1nc(Cl)c(N)c(NCC2(CO)CCCC2)n1`, the GI50 [8] is reported as 50.5 µM (inactive).
`C=CCn1c(=O)ccn(/C(=C/C(=O)OCC)C(=O)OCC)c1=O` was tested, and the GI50 [8] was 15.7 µM (inactive).
For `C/C(=N\n1c(Cc2ccccc2)n[nH]c1=O)c1ccc([N+](=O)[O-])cc1`, the GI50 [8] was > 100 µM (inactive).
In the case of `CC(Oc1ccccc1Cl)C(=O)NN1C(=O)CSC1c1ccccc1` (centres undefined), the GI50 [8] is reported as > 100 µM (inactive).
For `Cc1ccc(C)c(NC2=NC(=O)C(CC(=O)Nc3ccc(Cl)cc3Cl)S2)c1` (centres undefined), the GI50 [1] was > 100 µM (inactive), the GI50 [2] was 59.4 µM (inactive) and the GI50 [3] was 98.6 µM (inactive). The GI50 [5] was > 100 µM (inactive), the GI50 [6] was > 100 µM (inactive) and the GI50 [7] was 42.6 µM (inactive).
For `O=C(CC(O)(C(F)(F)F)C(F)(F)F)C(c1ccccc1)C(O)(C(F)(F)F)C(F)(F)F` (centres undefined), the GI50 [8] was 24 µM (inactive).
With `N#CC1CCCC2SC(F)(F)C(F)(F)C12` (centres undefined) the GI50 [8] was > 100 µM (inactive).
For `CC(=O)NNc1nc(C)c(C(/C=C/c2ccc([N+](=O)[O-])cc2)=N/NC(N)=S)s1`, the GI50 [8] was > 100 µM (inactive).
For `CN(CCN(C)C(=S)NN)C(=S)NN`, the GI50 [8] was > 100 µM (inactive).
In the case of `CCOC(=O)/C1=C(\C)N(c2ccc(C)cc2)C(=O)c2ccccc2C(=O)c2c(O)ccc(O)c21`, the GI50 [8] is reported as 27.7 µM (inactive).
For `O=S(=O)(O)c1ccc2c(/N=N/c3ccccc3Cl)c(O)ccc2c1`, the GI50 [8] was > 100 µM (inactive).
With `COc1ccc(-n2nnc(C(N)=O)c2O)cc1` the GI50 [8] was > 100 µM (inactive).
With `C=C1[C@H](OC(=O)C(C)C)[C@]23CC4(O)[C@@H]5[C@@]6(C)CCC[C@]57C([C@@H]2C[C@@]1(O)[C@H](O)[C@@H]73)N4C6` the GI50 [8] was > 100 µM (inactive).
`C=C1CC2CC[C@@]34C[C@H]5O[C@@H]6C(O[C@H]7CC[C@H](CC(=O)OC8[C@H](C)C9OC%10C[C@]%11(C[C@@H]%12O[C@]%13(C[C@H](C)[C@@H]%14O[C@H]([C@H](O)C[C@H](O)CO)C[C@@H]%14O%13)C[C@H](C)[C@@H]%12O%11)OC%10CC9O[C@H]8C[C@H]8O[C@H](CC[C@@H]1O2)C[C@@H](C)C8=C)O[C@H]7[C@@H]6O3)[C@@H]5O4` (some centres undefined) was tested, and the GI50 [1] was 0.0018 µM (active), the GI50 [2] was 0.000618 µM (active) and the GI50 [3] was 0.000538 µM (active). The GI50 [4] was 0.00261 µM (active), the GI50 [5] was < 0.01 µM (active) and the GI50 [6] was 0.000395 µM (active). The GI50 [8] was 1.31 µM (inactive) and the GI50 [7] was 0.00037 µM (active).
In the case of `O=C(/C=C/c1ccc(O)c(O)c1)OCCOC(=O)/C=C/c1ccc(O)c(O)c1`, the GI50 [8] is reported as 34.4 µM (inactive).
In the case of `Cn1c(=O)nc2n(-c3cc(Cl)ccc3Cl)c3ccccc3nc-2c1=O`, the GI50 [1] is reported as 1.53 µM (inactive), the GI50 [2] is reported as 1.35 µM (inactive) and the GI50 [3] is reported as 3.67 µM (inactive). For the same compound, the GI50 [4] was 13.5 µM (inactive), the GI50 [5] was 12.4 µM (inactive) and the GI50 [6] was 2.93 µM (inactive). For the same compound, the GI50 [7] was 2.11 µM (inactive).
For `CC(=O)OC(C)(C)[C@H]1O[C@]23O[C@]1(C)C[C@@H](C)[C@@H]2[C@@]1(C)CC[C@@]24C[C@@]25CC[C@H](O[C@@H]2OC[C@@H](O)[C@H](O)[C@H]2O)C(C)(C)[C@@H]5CC[C@H]4[C@]1(C)[C@H]3O`, the GI50 [8] was 16.3 µM (inactive).
In the case of `O=[N+]([O-])c1ccc(/N=N/N2CCCC2)cc1`, the GI50 [8] is reported as > 100 µM (inactive).
In the case of `CC1(C)CC[C@]2(C(=O)O)CC[C@]3(C)[C@H](C(=O)C=C4[C@@]5(C)C=C(C#N)C(=O)C(C)(C)[C@@H]5CC[C@]43C)[C@@H]2C1` [BARDOXOLONE], the GI50 [8] is reported as 0.731 µM (active).
`CC(=O)Oc1c2oc3cc(O)c(O)cc3c2c(OC(C)=O)c2oc3cc(O)c(O)cc3c12` [POLYOZELLIN] was tested, and the GI50 [8] was 17.1 µM (inactive).

— ChEMBL document CHEMBL1201862, “PubChem BioAssay data set” (2004)
